Counter-ions that a name gives are not always drawn.
Key:
[1] = target: T1, NK1 receptor (Cavia porcellus, UniProt P30547); assay: Antagonism of iodinated tachykinin (125I-substance P) binding to NK1 receptor in guinea pig lungs; parameters: tissue Keystone Biologicals, Cleveland, Ohio; host or cells: guinea pig lung membranes; details: guinea pig lungs; mean of several experiments; read-out: NK-1 IC50
Experimental: ANTAGONISM OF IODINATED TACHYKININ BINDING TO NK1 AND NK2 RECEPTORS BY PUTATIVE ANTAGONISTS
The NK1 receptor affinity of proposed tachykinin antagonists was evaluated in guinea pig lungs (Keystone Biologicals, Cleveland, Ohio), affinity for the NK2 receptor evaluated in HSKR-1 cells (which are mouse 3T3 fibroblasts expressing the human jejunal NK2 receptor) and NK-3 receptor affinity was evaluated in freshly collected guinea pig cerebral cortex. Tissues or cells were homogenized with a Polytron in 15 volumes of 50 mM Tris-HCl buffer (pH 7.4, 4° C.) and centrifuged. The pellet was resuspended in Tris-HCl buffer and was centrifuged; the pellet was washed twice by resuspension. The final pellet was resuspended at a concentration of 40 mg/ml for tissues (guinea pig lung and cerebral cortex) and 20 mg/ml for cells in incubation buffer and remained at room temperature for at least 15 min prior to use. Receptor binding was initiated by addition of 250 ul membrane preparation in duplicate to 0.1 nM of the following radioligands: ^125 I-Bolton Hunter Lys-3 labeled substance P; ^125 iodohistidyl-1-neurokinin A; and ^125 I-Bolton Hunter labeled Lys-4 eledoisin in a final volume of 500 ul of buffer containing 50 mM Tris-HCl (pH 7.4 at room temperature), 0.1% bovine serum albumin, 2 mM MnCl2, 40 ug/ml bacitracin, 4 µg/ml leupeptin and chymostatin, 1 μM thiorphan and various doses of the putative tachykinin antagonists. Incubations were performed at room temperature for 90 min (NK1 receptor assays) or 2 hr (NK2 and NK3 receptor assays); binding was terminated by addition of 50 mM Tris-HCl buffer (pH 7.4, 4° C.) and filtration under vacuum through GF/B filters presoaked with 0.1% polyethyleneimine (NK1 receptor assays) or 0.5% bovine serum albumin (NK2 and NK3 receptor assays). Filter bound radioactivity was quantitated in a gamma counter. Nonspecific binding was defined as binding in the presence of 1 μM substance P, neurokinin A, or eledoisin. Specific binding was calculated by subtracting nonspecific binding from total binding. Competition of iodinated SP, NKA, or eledoisin binding by test compounds or standards was expressed as a percentage of this maximum competition. IC50 values (concentration required to inhibit 50% of receptor binding) were generated for each of the test compounds by nonlinear regression using an iterative curve fitting program (GraphPAD Inplot, San Diego, Calif.).

[2] = test system: NK1 and NK2 receptors; assay: Antagonism of capsaicin aerosol induced respiratory effects in conscious guinea pigs; format: in vivo, guinea pig; details: for SRE NUMBER (coughs/gasps): 19 min capsaicin exposure; for SRE NUMBER (coughs/gasps) / DYSPNEA ONSET / MAXIMUM PRESSURE INCREASE: mean and SEM; for DYSPNEA INCIDENCE / DYSPNEA ONSET / MAXIMUM PRESSURE INCREASE: capsaicin aerosol 0.001%
Experimental: (§1) ANTAGONISM OF NKA AND CAPSAICIN INDUCED R[…] IN CONSCIOUS GUINEA PIGS
(§2) In vivo experiments were performed using male Duncan Hartley guinea pigs (250-350 g). Changes in conscious breathing patterns were monitored in four animals simultaneously using modified whole body plethysmography consisting of four small plexiglass boxes each connected to a reference box via Validyne DP 45-16 differential pressure transducers. The 4 boxes were equipped with an air supply line (also used for aerosol delivery) and an exhaust air line. Supply and exhaust lines were of the same length and narrow bore and arose from a common supply chamber and vented to a common exhaust chamber. This system was used to ensure that fluctuations in supply air and atmospheric pressure would remain in phase and be eliminated from the net signal by the differential pressure transducers. The analog pressure signals were digitalized via a Data Translation DT2821 A to D board. Data were collected at a rate of 100 samples/second/animal. Each cycle of pressure change was analyzed using the following parameters: rising and falling slope determined between minimum and maximum pressures, the ratio of rising over falling slope, and the magnitude of the change between initial trough pressure and peak cycle pressure. Using these values (and observing the animals) the pressure cycles were characterized into normal breaths, forced exhalations (apparent by abdominal heaving), significant respiratory events (SREs; usually coughs, less often sneezes or gasps which were characterized by transient, extremely large pressure increases which were distinguishable from noise) and movement/noise with a PCAT 286 running a System V UNIX operating system. Dyspnea was defined as a significant, sustained increase in plethysmograph pressure which was associated with an observable shift to labored breathing in the animal.
(§3) During the course of a typical experiment in which airway responsiveness to various bronchoconstricting agents was examined, aerosols were delivered for 19 min (0.33 ml/min) using a DeVilbiss Ultraneb 99 ultrasonic nebulizer and animals monitored during this time. Prior to nebulization, 1 min of resting breathing was collected to establish a baseline pressure. […] The vehicle for nebulization of all bronchoconstrictive agents was phosphate buffered saline (pH 7.4) which elicited no r[…] itself. Putative tachykinin antagonists were administered either (i.v.) 20 min prior to onset of aerosol exposure or orally 1 hour prior to onset (to guinea pigs after an overnight fast).
Capsaicin aerosol is known to promote release of the tachykinins SP and NKA from sensory nerves in the airways of guinea pigs which may then act upon NK1 and NK2 receptors, respectively to elicit r[…]. The ability of the compounds of Example 3A; and Example 20A to attenuate capsaicin-induced r[…], shown in Table 7a, is inferred from their ability to reduce incidence of dyspnea, prolong the onset of the response and reduce the number of coughs/gasps which occur during aerosol exposure.

[3] = test system: NK2 receptor; assay: Antagonism of NKA aerosol induced respiratory effects in conscious guinea pigs; format: in vivo, guinea pig; details: 20 min prior to NKA aerosol (0.05%); for DYSPNEA ONSET: mean and SEM
Experimental: as §1, §2, §3
Table 6 illustrates the effects of the compounds of Example 3; Example 20A; and Example 5A on r[…] induced by NKA aerosol. […] These effects were dose dependent i.e. the higher the dose of compound, the greater attenuation of NKA-mediated effects.

[4] = target: T1, NK1 receptor; assay: Antagonism of SP-induced plasma protein extravasation in guinea pig trachea; format: in vivo; parameters: SP-induced plasma protein extravasation in guinea pig trachea; from tissue; host or cells: living guinea pig; trachea and primary bronchi; details: i.v.; Example 3 versus Example 20A
Experimental: ANTAGONISM OF SP-INDUCED PLASMA PROTEIN EXTRAVASATION IN GUINEA PIG TRACHEA
SP-induced protein leakage through postcapillary venules was assessed by measuring Evans Blue dye accumulation in guinea pig trachea. Animals were anesthetized with pentobarbital then injected with Evans Blue dye (20 mg/kg, i.v., prepared in 0.9% NaCl solution). One minute after dye administration, the antagonist was administered (i.v.) followed by SP (0.3 nmole/kg, i.v.) and, after 5 min, excess dye removed from the circulation by transcardiac perfusion with 50 ml 0.9% NaCl solution. The trachea and primary bronchi were removed, blotted dry and weighed. Dye quantitation was performed spectrophotometrically ([…]) after extracting tissues in formamide for 24 hr at 50° C. Values were subtracted from background (dye only, no agonist). ED50 (dose of compound which inhibits SP-induced plasma protein extravasation by 50%) was calculated from linear regression analysis.

T1 sequence (P30547 whole entry): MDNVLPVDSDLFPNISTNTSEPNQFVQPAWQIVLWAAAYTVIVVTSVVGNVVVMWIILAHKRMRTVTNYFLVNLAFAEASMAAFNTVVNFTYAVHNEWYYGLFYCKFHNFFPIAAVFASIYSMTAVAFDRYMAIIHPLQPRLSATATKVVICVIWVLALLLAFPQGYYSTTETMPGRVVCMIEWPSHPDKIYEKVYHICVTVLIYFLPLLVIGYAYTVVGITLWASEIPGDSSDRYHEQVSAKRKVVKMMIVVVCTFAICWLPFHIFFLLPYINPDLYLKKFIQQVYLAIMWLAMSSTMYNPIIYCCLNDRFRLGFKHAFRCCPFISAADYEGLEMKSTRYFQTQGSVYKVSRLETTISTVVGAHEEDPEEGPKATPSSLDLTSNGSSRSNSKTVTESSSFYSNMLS

NC(=O)C1(c2ccccc2)CCN(CCC2(c3ccc(Cl)c(Cl)c3)CCN(C(=O)c3ccccc3)C2)CC1 (stereo not drawn) [Example 1, 1-[2-[3-(3,4-dichloro-phenyl)-1-benzoyl-pyrrolidin-3-yl]-ethyl]-4-phenyl-piperidine-4-carboxylic acid amide] was tested, and the IC50 [1] was 270 nM.

COc1ccccc1CC(=O)N1CCC(CCN2CCC(C(N)=O)(c3ccccc3)CC2)(c2ccc(Cl)c(Cl)c2)C1 (stereo not drawn) [Example 4, 1-(2-[3-(3,4-dichloro-phenyl)-1-[2-(2-methoxy-phenyl)-acetyl]-pyrrolidin-3-yl]-ethyl)-4-phenyl-piperidine-4-carboxylic acid amide] was tested, and the IC50 [1] was 48 nM.

With COc1ccccc1C(=O)N1CCC(CCN2CCC(C(N)=O)(c3ccccc3)CC2)(c2ccc(Cl)c(Cl)c2)C1 (stereo not drawn) [Example 13, 1-[2-[3-(3,4-dichloro-phenyl)-1-(2-methoxy-benzoyl)-pyrrolidin-3-yl]-ethyl]-4-phenyl-piperidine-4-carboxylic acid amide] the IC50 [1] was 74 nM.

For COc1cc(C(=O)N2CCC(CCN3CCC(C(N)=O)(c4ccccc4)CC3)(c3ccc(Cl)c(Cl)c3)C2)cc(OC)c1OC (single isomer, unassigned; (+)) [Example 20A, (+)-1-[2-[3-(3,4-dichloro-phenyl)-1-(3,4,-trimethoxy-benzoyl)-pyrrolidin-3-yl]-ethyl]-4-phenyl-piperidine-4-carboxylic acid amide hydrochloride], the “SRE NUMBER (coughs/gasps)” value ([2]; 1 mg/kg intravenous) was 9.9 ± 2.7, the “DYSPNEA INCIDENCE” value ([2]; 1 mg/kg intravenous) was 77.8% and the “DYSPNEA ONSET” value ([2]; 1 mg/kg intravenous) was 331 ± 22 s. The “MAXIMUM PRESSURE INCREASE” value ([2]; 1 mg/kg intravenous) was 1.0 ± 0.1 mmH2 O, the “SRE NUMBER (coughs/gasps)” value ([2]; 2.5 mg/kg intravenous) was 8.3 ± 1.6 and the “DYSPNEA INCIDENCE” value ([2]; 2.5 mg/kg intravenous) was 100%. For the same molecule, the “DYSPNEA ONSET” value ([2]; 2.5 mg/kg intravenous) was 426 ± 57 s, the “MAXIMUM PRESSURE INCREASE” value ([2]; 2.5 mg/kg intravenous) was 0.6 ± 0.1 mmH2 O and the “SRE NUMBER (coughs/gasps)” value ([2]; 5 mg/kg intravenous) was 4.4 ± 1.9. For the same molecule, the “DYSPNEA INCIDENCE” value ([2]; 5 mg/kg intravenous) was 44.4%, the “DYSPNEA ONSET” value ([2]; 5 mg/kg intravenous) was 597 ± 186 s and the “MAXIMUM PRESSURE INCREASE” value ([2]; 5 mg/kg intravenous) was 0.8 ± 0.06 mmH2 O. The “SRE NUMBER (coughs/gasps)” value ([2]; 10 mg/kg intravenous) was 3.3 ± 1.1, the “DYSPNEA INCIDENCE” value ([2]; 10 mg/kg intravenous) was 55.6% and the “DYSPNEA ONSET” value ([2]; 10 mg/kg intravenous) was 592 ± 71 s. For the same molecule, the “MAXIMUM PRESSURE INCREASE” value ([2]; 10 mg/kg intravenous) was 0.8 ± 0.1 mmH2 O, the “inhibition of endogenous tachykinins released by capsaicin aerosol (in words)” value ([2]; guinea pig, in vivo) was “inhibit the endogenous tachykinins released by capsaicin aerosol” and the “DYSPNEA INCIDENCE” value ([3]; 1 mg/kg) was 100%. For the same molecule, the “DYSPNEA ONSET” value ([3]; 1 mg/kg) was 451 ± 30 s, the “DYSPNEA INCIDENCE” value ([3]; 5 mg/kg) was 90% and the “DYSPNEA ONSET” value ([3]; 5 mg/kg) was 706 ± 82 s. The “DYSPNEA INCIDENCE” value ([3]; 10 mg/kg) was 70%, the “DYSPNEA ONSET” value ([3]; 10 mg/kg) was 829 ± 105 s and the “relative potency as NK-1 receptor antagonists (in words)” value [4] was “equipotent”.

— patent US5648366A, “Substituted pyrrolidin-3-yl-alkyl-piperidines” (Merrell Pharmaceuticals Inc., priority 1995, dated 1997)
